According to ChEMBL document CHEMBL1201862, “PubChem BioAssay data set” (2004):
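Exposure lasted 48 hours, with cells grown in 96-well plates and compounds tested at five concentrations. GI50: concentration for 50% inhibition of growth.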 The source made the active and inactive calls. Rule as the data show it: active = GI50 up to about 1.1 µM and inactive = higher.

How the values were obtained:
Experiment in all cases: NCI-60 cell line screen, 48 h
MCF7 = test system: MCF7
COLO 205 = test system: COLO 205
OVCAR-4 = test system: OVCAR-4
TK-10 = test system: TK-10
HCT-116 = test system: HCT-116
Malme-3M = test system: Malme-3M
T47D = test system: T47D
DU-145 = test system: DU-145
786-0 = test system: 786-0
SF-268 = test system: SF-268
SK-MEL-5 = test system: SK-MEL-5
SR = test system: SR
NCI-H522 = test system: NCI-H522
HT-29 = test system: HT-29
HOP-92 = test system: HOP-92
RXF 393 = test system: RXF 393
UACC-257 = test system: UACC-257
NCI-H460 = test system: NCI-H460
HCT-15 = test system: HCT-15
SF-539 = test system: SF-539
HOP-62 = test system: HOP-62
MDA-MB-231 = test system: MDA-MB-231
SK-MEL-28 = test system: SK-MEL-28
NCI-H23 = test system: NCI-H23
BT-549 = test system: BT-549
M14 = test system: M14
NCI/ADR-RES = test system: NCI/ADR-RES
RPMI-8226 = test system: RPMI-8226
UACC-62 = test system: UACC-62
SNB-75 = test system: SNB-75
A549 = test system: A549
Hs-578T = test system: Hs-578T
UO-31 = test system: UO-31
KM12 = test system: KM12
MDA-MB-435 = test system: MDA-MB-435
CAKI-1 = test system: CAKI-1
OVCAR-3 = test system: OVCAR-3
SN12C = test system: SN12C
OVCAR-5 = test system: OVCAR-5
IGROV-1 = test system: IGROV-1
SF-295 = test system: SF-295
PC-3 = test system: PC-3
EKVX = test system: EKVX
NCI-H226 = test system: NCI-H226
SNB-19 = test system: SNB-19
MDA-N = test system: MDA-N
HL-60 = test system: HL-60
K562 = test system: K562
A498 = test system: A498
SK-MEL-2 = test system: SK-MEL-2
HCC 2998 = test system: HCC 2998
U-251 = test system: U-251
MOLT-4 = test system: MOLT-4
LOX IMVI = test system: LOX IMVI
CCRF-CEM = test system: CCRF-CEM
SW-620 = test system: SW-620
OVCAR-8 = test system: OVCAR-8
ACHN = test system: ACHN
SK-OV-3 = test system: SK-OV-3

Question: Which GI50 (MCF7) does the source give for Cc1ccc(-c2n[nH]c(=O)[nH]2)cc1 here?
Answer: > 100 µM (inactive)

Question: And the GI50 (COLO 205)?
Answer: > 100 µM (inactive)

Question: And the GI50 (OVCAR-4)?
Answer: > 100 µM (inactive)

Question: And the GI50 (TK-10)?
Answer: > 100 µM (inactive)

Question: And the GI50 (HCT-116)?
Answer: > 100 µM (inactive)

Question: What about the GI50 (Malme-3M) of the same molecule?
Answer: > 100 µM (inactive)

Question: And the GI50 (T47D)?
Answer: > 46.5 µM (inactive)

Question: What about the GI50 (DU-145) of the same molecule?
Answer: > 100 µM (inactive)

Question: And the GI50 (786-0)?
Answer: > 100 µM (inactive)

Question: And the GI50 (SF-268)?
Answer: > 100 µM (inactive)

Question: What about the GI50 (SK-MEL-5) of the same molecule?
Answer: > 100 µM (inactive)

Question: What about the GI50 (SR) of the same molecule?
Answer: > 100 µM (inactive)

Question: What about the GI50 (NCI-H522) of the same molecule?
Answer: > 100 µM (inactive)

Question: What about the GI50 (HT-29) of the same molecule?
Answer: > 100 µM (inactive)

Question: And the GI50 (HOP-92)?
Answer: 44.9 µM (inactive)

Question: And the GI50 (RXF 393)?
Answer: > 100 µM (inactive)

Question: And the GI50 (UACC-257)?
Answer: > 66.1 µM (inactive)

Question: And the GI50 (NCI-H460)?
Answer: > 100 µM (inactive)

Question: And the GI50 (HCT-15)?
Answer: > 100 µM

Question: What about the GI50 (SF-539) of the same molecule?
Answer: > 100 µM (inactive)

Question: And the GI50 (HOP-62)?
Answer: > 100 µM (inactive)

Question: And the GI50 (MDA-MB-231)?
Answer: > 100 µM (inactive)

Question: What about the GI50 (SK-MEL-28) of the same molecule?
Answer: > 100 µM (inactive)

Question: What about the GI50 (NCI-H23) of the same molecule?
Answer: > 100 µM (inactive)

Question: And the GI50 (BT-549)?
Answer: > 100 µM (inactive)

Question: And the GI50 (M14)?
Answer: > 100 µM (inactive)

Question: And the GI50 (NCI/ADR-RES)?
Answer: > 100 µM (inactive)

Question: What about the GI50 (RPMI-8226) of the same molecule?
Answer: > 100 µM (inactive)

Question: And the GI50 (UACC-62)?
Answer: > 100 µM (inactive)

Question: And the GI50 (SNB-75)?
Answer: > 100 µM (inactive)

Question: What about the GI50 (A549) of the same molecule?
Answer: > 100 µM (inactive)

Question: And the GI50 (Hs-578T)?
Answer: > 100 µM (inactive)

Question: And the GI50 (UO-31)?
Answer: > 100 µM (inactive)

Question: What about the GI50 (KM12) of the same molecule?
Answer: > 100 µM (inactive)

Question: What about the GI50 (MDA-MB-435) of the same molecule?
Answer: > 100 µM (inactive)

Question: What about the GI50 (CAKI-1) of the same molecule?
Answer: > 100 µM (inactive)

Question: And the GI50 (OVCAR-3)?
Answer: > 100 µM (inactive)

Question: What about the GI50 (SN12C) of the same molecule?
Answer: > 100 µM (inactive)

Question: What about the GI50 (OVCAR-5) of the same molecule?
Answer: > 100 µM (inactive)

Question: What about the GI50 (IGROV-1) of the same molecule?
Answer: > 100 µM (inactive)

Question: And the GI50 (SF-295)?
Answer: > 49 µM (inactive)

Question: What about the GI50 (PC-3) of the same molecule?
Answer: > 100 µM (inactive)

Question: And the GI50 (EKVX)?
Answer: 45.8 µM (inactive)

Question: And the GI50 (NCI-H226)?
Answer: > 100 µM (inactive)

Question: And the GI50 (SNB-19)?
Answer: > 100 µM (inactive)

Question: And the GI50 (MDA-N)?
Answer: > 100 µM (inactive)

Question: What about the GI50 (HL-60) of the same molecule?
Answer: > 100 µM (inactive)

Question: What about the GI50 (K562) of the same molecule?
Answer: > 100 µM (inactive)

Question: What about the GI50 (A498) of the same molecule?
Answer: > 100 µM (inactive)

Question: And the GI50 (SK-MEL-2)?
Answer: > 100 µM (inactive)

Question: And the GI50 (HCC 2998)?
Answer: > 100 µM (inactive)

Question: What about the GI50 (U-251) of the same molecule?
Answer: > 100 µM (inactive)

Question: What about the GI50 (MOLT-4) of the same molecule?
Answer: > 100 µM (inactive)

Question: And the GI50 (LOX IMVI)?
Answer: > 100 µM (inactive)

Question: What about the GI50 (CCRF-CEM) of the same molecule?
Answer: > 100 µM (inactive)

Question: And the GI50 (SW-620)?
Answer: > 100 µM (inactive)

Question: What about the GI50 (OVCAR-8) of the same molecule?
Answer: > 100 µM (inactive)

Question: And the GI50 (ACHN)?
Answer: > 100 µM (inactive)

Question: For C=C1C(=O)C2=C[C@H]1C[C@H](O)C(=O)[C@]1(C)CCCC(C)(C)[C@H]1C[C@H]2O, which GI50 (MCF7) is on record?
Answer: 0.388 µM (active)

Question: And the GI50 (COLO 205)?
Answer: 0.638 µM (active)

Question: What about the GI50 (OVCAR-4) of the same molecule?
Answer: 3.94 µM (inactive)

Question: And the GI50 (TK-10)?
Answer: 0.787 µM (active)

Question: What about the GI50 (HCT-116) of the same molecule?
Answer: 1.63 µM (inactive)

Question: And the GI50 (Malme-3M)?
Answer: 0.83 µM (active)

Question: And the GI50 (T47D)?
Answer: 1.11 µM (active)

Question: And the GI50 (DU-145)?
Answer: 1.77 µM (inactive)

Question: And the GI50 (786-0)?
Answer: 0.959 µM (active)

Question: And the GI50 (SF-268)?
Answer: 4.38 µM (inactive)

Question: And the GI50 (SR)?
Answer: 0.358 µM (active)

Question: What about the GI50 (NCI-H522) of the same molecule?
Answer: 0.0428 µM (active)

Question: What about the GI50 (HT-29) of the same molecule?
Answer: 1.47 µM (inactive)

Question: And the GI50 (HOP-92)?
Answer: 1.49 µM (inactive)

Question: And the GI50 (RXF 393)?
Answer: 0.315 µM (active)

Question: What about the GI50 (UACC-257) of the same molecule?
Answer: 1.86 µM (inactive)

Question: And the GI50 (NCI-H460)?
Answer: 2.88 µM (inactive)

Question: What about the GI50 (HCT-15) of the same molecule?
Answer: 0.406 µM

Question: What about the GI50 (SF-539) of the same molecule?
Answer: 1.33 µM (inactive)

Question: And the GI50 (HOP-62)?
Answer: 12.9 µM (inactive)

Question: And the GI50 (MDA-MB-231)?
Answer: 1.32 µM (inactive)

Question: And the GI50 (SK-MEL-28)?
Answer: 1.73 µM (inactive)

Question: And the GI50 (NCI-H23)?
Answer: 1.63 µM (inactive)

Question: And the GI50 (BT-549)?
Answer: 2.16 µM (inactive)

Question: What about the GI50 (M14) of the same molecule?
Answer: 1.52 µM (inactive)

Question: What about the GI50 (NCI/ADR-RES) of the same molecule?
Answer: 1.67 µM (inactive)

Question: And the GI50 (RPMI-8226)?
Answer: 0.235 µM (active)

Question: What about the GI50 (UACC-62) of the same molecule?
Answer: 1.59 µM (inactive)

Question: And the GI50 (SNB-75)?
Answer: 5.58 µM (inactive)

Question: And the GI50 (A549)?
Answer: 0.665 µM (active)

Question: What about the GI50 (Hs-578T) of the same molecule?
Answer: 2.76 µM (inactive)

Question: And the GI50 (UO-31)?
Answer: 2.06 µM (inactive)

Question: What about the GI50 (KM12) of the same molecule?
Answer: 2.93 µM (inactive)

Question: What about the GI50 (MDA-MB-435) of the same molecule?
Answer: 2.65 µM (inactive)

Question: What about the GI50 (CAKI-1) of the same molecule?
Answer: 1.48 µM (inactive)

Question: What about the GI50 (OVCAR-3) of the same molecule?
Answer: 2.02 µM (inactive)

Question: And the GI50 (SN12C)?
Answer: 1.77 µM (inactive)

Question: What about the GI50 (OVCAR-5) of the same molecule?
Answer: 1.93 µM (inactive)

Question: And the GI50 (IGROV-1)?
Answer: 3.6 µM (inactive)

Question: And the GI50 (SF-295)?
Answer: 7.94 µM (inactive)

Question: And the GI50 (PC-3)?
Answer: 1.92 µM (inactive)

Question: What about the GI50 (EKVX) of the same molecule?
Answer: 1.73 µM (inactive)

Question: What about the GI50 (NCI-H226) of the same molecule?
Answer: 10.5 µM (inactive)

Question: What about the GI50 (SNB-19) of the same molecule?
Answer: 16.1 µM (inactive)

Question: What about the GI50 (MDA-N) of the same molecule?
Answer: 1.93 µM (inactive)

Question: And the GI50 (SK-OV-3)?
Answer: 12.8 µM (inactive)

Question: And the GI50 (HL-60)?
Answer: 0.237 µM (active)

Question: And the GI50 (K562)?
Answer: 0.215 µM (active)

Question: And the GI50 (A498)?
Answer: 1.86 µM (inactive)

Question: And the GI50 (SK-MEL-2)?
Answer: 7.19 µM (inactive)

Question: What about the GI50 (U-251) of the same molecule?
Answer: 1.32 µM (inactive)

Question: What about the GI50 (MOLT-4) of the same molecule?
Answer: 0.979 µM (active)

Question: What about the GI50 (LOX IMVI) of the same molecule?
Answer: 0.916 µM (active)

Question: What about the GI50 (CCRF-CEM) of the same molecule?
Answer: 0.0488 µM (active)

Question: What about the GI50 (SW-620) of the same molecule?
Answer: 0.583 µM (active)

Question: What about the GI50 (OVCAR-8) of the same molecule?
Answer: 2.33 µM (inactive)

Question: What about the GI50 (ACHN) of the same molecule?
Answer: 0.452 µM (active)
